Data published in ChEMBL document CHEMBL1137647, “vanD and vanG-like gene clusters in a Ruminococcus species isolated from human bowel flora” (2007).

System: Ruminococcus sp.
Experiment: Antimicrobial activity against Ruminococcus sp. CCRI-16110 containing vanD-like gene by agar dilution method
Assay type: functional

Structure (SMILES)	MIC
Cc1ncc([N+](=O)[O-])n1CCO [METRONIDAZOLE]	< 0.125 µg/mL
CN[C@H](CC(C)C)C(=O)N[C@H]1C(=O)N[C@@H](CC(N)=O)C(=O)N[C@H]2C(=O)N[C@H]3C(=O)N[C@H](C(=O)N[C@H](C(=O)O)c4cc(O)cc(O)c4-c4cc3ccc4O)[C@H](O)c3ccc(c(Cl)c3)Oc3cc2cc(c3O[C@@H]2O[C@H](CO)[C@@H](O)[C@H](O)[C@H]2O[C@H]2C[C@](C)(N)[C@H](O)[C@H](C)O2)Oc2ccc(cc2Cl)[C@H]1O [VANCOMYCIN]	> 256 µg/mL
